According to patent US20260034121A1, “COMPOSITIONS AND METHODS FOR ALPHA-SYNUCLEIN FIBRIL GROWTH INHIBITION” (Washington University, priority 2024, published 2026):

Target: T1, aSyn fibril growth (in vitro aSyn fibrils) (Homo sapiens, UniProt P37840)
T1 construct: made in house; host or cells: E. coli BL21-CodonPlus (DE3)-RIL, pRK172 plasmid
Assay: FlAsH fluorescence fibril growth assay with in vitro assembled aSyn fibril seeds
Format: biochemical
From the text: Inhibition of fibril growth by small molecule compounds is likely to be mediated primarily by binding interactions with either monomer, fibrils, or both. However, secondary nucleation may occur and contribute to fibril growth under some conditions, and compounds may affect growth through interaction with oligomeric intermediates to inhibit conversion to fibrils. In one proposed mechanism, a compound binds to the end surface of fibrils and interferes with the binding of the new monomer required to extend the seed or fibril (FIG. 1). Since binding will deplete the free concentration of the inhibitor, measured IC50 values will be proportional to the concentration of the binding target (fibril seeds) and proportional to the concentration of monomer, with which the inhibitor competes for binding.
The fibril growth assay was performed similarly to previously published methods. […] Maximum inhibition is calculated as (Intensity100μM−Intensity0μM)/Intensity0μM×100% where Intensity100μM and Intensity0μM is the intensity at 100 μM of compound and intensity with no compound in the presence of fibrils and monomers.

## CCOC(=O)C1CCN(Cc2cc(OC)c(O)c(OC)c2)CC1 [Compound 1, ethyl 1-[(4-hydroxy-3,5-dimethoxyphenyl)methyl]piperidine-4-carboxylate]
At 100 μM compound versus no compound, read-out: Max Inhibition [%] [mean ± std]
  inhibition at 100 µM: 79%
read-out: IC50 [95% Cl] [μM] [mean ± std], 1 μM fibril seeds, 3 μM C2-aSyn monomer, 3-hour incubation
  IC50: 18 µM
